Test system: Nicotiana benthamiana plants (endogenous PDS, EPSPS, RuBisCO genes)
Test: PDS, EPSPS or RuBisCO anti-sense polynucleotides on Nicotiana benthamiana, plant height and phenotype (Example 33)
Assay type: in vivo
Source text: An anti-sense polynucleotide with the sequence […] (SEQ ID NO:34) was designed for the endogenous Nicotiana benthamiana phytoene desaturase (PDS) gene, which has the cDNA sequence fragments […] […] (SEQ ID NO:38). Anti-sense polynucleotides with the sequences […] (SEQ ID NO:279), […] (SEQ ID NO:280), […] (SEQ ID NO:281), […] (SEQ ID NO:282), […] (SEQ ID NO:283), and […] (SEQ ID NO:284) were designed for the endogenous Nicotiana benthamiana 5-enolpyruvylshikimate-3-phosphate synthase (EPSPS) gene, based on the Nicotiana benthamiana EPSPS cDNA sequence […] […] (SEQ ID NO:285), […] […] (SEQ ID NO:286), and […] […] (SEQ ID NO:287). Anti-sense polynucleotides with the sequences […] (AK195, RBCS—1-2-3-4, SEQ ID NO:288), […] (AK196, RBCS—1-2-3-4, SEQ ID NO:289), […] (AK197, RBCS—1-2-3-4, SEQ ID NO:290), […] (AK198, RBCS—1-2, SEQ ID NO:291), […] (AK199, RBCS—1-2, SEQ ID NO:292), […] (AK200, RBCS—3-4, SEQ ID NO:293), […] (AK201, RBCS—3-4, SEQ ID NO:294), and […] (AK202, RBCS—3-4, SEQ ID NO:295) were designed for the endogenous Nicotiana benthamiana ribulose-1,5-bisphosphate carboxylase oxygenase (RuBisCO) gene, based on the Nicotiana benthamiana chloroplastic RuBisCO small chain 2A cDNA sequence fragments • […] […]

Question: Which “plant height (FIGS. 36A-36C)” value (12 days (PDS and EPSPS) or 10 days (RuBisCO) after treatment) does the source give for “CATCTCCTTTAATTGTACTGC (DNA, backbone not given here) [PDS 21-mer anti-sense ssDNA]” here?
Answer: Its value is “severe stunting”.

Question: What about the other phenotype (PDS 25 nanomoles, EPSPS and RuBisCO 50 nanomoles of each polynucleotide per plant) of the same sequence?
Answer: Its other phenotype is “bleaching”.

From patent US9121022B2, “Method for controlling herbicide-resistant plants” (priority 2010, dated 2015)
